Key:
[1] = Metabolic stability in rat liver microsomes assessed as apparent intrinsic clearance
in vivo [2] = conditions: ICR, mouse, po, 10 mg/kg
Description: Oral bioavailability in ICR mouse at 10 mg/kg measured upto 24 hrs by LC-MS/MS analysis

in vivo [3] = conditions: ICR, mouse, po, 10 mg/kg; remark: listed apart in the source
Description: AUC (0 to t) in ICR mouse at 10 mg/kg, po measured upto 24 hrs by LC-MS/MS analysis

[4] = Metabolic stability in human liver microsomes assessed as half life
[5] = Metabolic stability in human liver microsomes assessed as intrinsic clearance
[6] = Half life in ICR mouse at 2 mg/kg, iv measured upto 24 hrs by LC-MS/MS analysis; conditions: in vivo
[7] = Metabolic stability in rat liver microsomes assessed as hepatic clearance
[8] = Metabolic stability in human liver microsomes assessed as hepatic clearance
SU-DHL-6 = assay: Antiproliferative activity against human SU-DHL-6 cells assessed as cell viability measured after 72 hrs incubation by CellTiter-based growth inhibition assay; conditions: SU-DHL-6, 72 h
[9] = Metabolic stability in rat liver microsomes assessed as hepatic extraction
[10] = Half life in ICR mouse at 10 mg/kg, po measured upto 24 hrs by LC-MS/MS analysis; conditions: in vivo
Toledo = assay: Antiproliferative activity against human Toledo cells assessed as cell viability measured after 72 hrs incubation by CellTiter-based growth inhibition assay
[11] = Volume of distribution at steady state in ICR mouse at 2 mg/kg measured upto 24 hrs by LC-MS/MS analysis; conditions: in vivo, iv
[12] = Clearance in ICR mouse at 2 mg/kg, iv measured upto 24 hrs by LC-MS/MS analysis; conditions: in vivo
OCI-Ly3 = assay: Antiproliferative activity against human OCI-Ly3 cells assessed as cell viability measured after 72 hrs incubation by CellTiter-based growth inhibition assay; conditions: OCI-Ly3, 72 h
[13] = MRT in ICR mouse at 2 mg/kg, iv measured upto 24 hrs by LC-MS/MS analysis; conditions: in vivo
in vivo [14] = conditions: ICR, mouse, po, 10 mg/kg; remark: listed apart in the source
Description: Cmax in ICR mouse at 10 mg/kg, po measured upto 24 hrs by LC-MS/MS analysis

[15] = Metabolic stability in human liver microsomes assessed as apparent intrinsic clearance
SU-DHL-2 = assay: Antiproliferative activity against human SU-DHL-2 cells assessed as cell viability measured after 72 hrs incubation by CellTiter-based growth inhibition assay; conditions: SU-DHL-2, 72 h
[16] = AUCt in ICR mouse at 2 mg/kg, iv measured upto 24 hrs by LC-MS/MS analysis; conditions: in vivo
[17] = target: ATP-dependent Clp protease proteolytic subunit, mitochondrial (Homo sapiens, UniProt Q16740); assay: Activation of human ClpP extracted from Escherichia coli using Ac-WLA-AMC as substrate assessed as fluorescence signal measured after 10 mins incubation
[18] = Metabolic stability in rat liver microsomes assessed as half life
in vivo [19] = conditions: ICR, mouse, po, 10 mg/kg; remark: listed apart in the source
Description: Tmax in ICR mouse at 10 mg/kg, po measured upto 24 hrs by LC-MS/MS analysis

[20] = Metabolic stability in human liver microsomes assessed as hepatic extraction
SUD4 = assay: Antiproliferative activity against human SU-DHL-4 cells assessed as cell viability measured after 72 hrs incubation by CellTiter-based growth inhibition assay; conditions: SU-DHL-4, 72 h
[21] = Metabolic stability in rat liver microsomes assessed as intrinsic clearance
[22] = MRT in ICR mouse at 10 mg/kg, po measured upto 24 hrs by LC-MS/MS analysis; conditions: in vivo
[23] = target: Voltage-gated inwardly rectifying potassium channel KCNH2 (Homo sapiens, UniProt Q12809)
Sequence of Voltage-gated inwardly rectifying potassium channel KCNH2 (Q12809 whole entry): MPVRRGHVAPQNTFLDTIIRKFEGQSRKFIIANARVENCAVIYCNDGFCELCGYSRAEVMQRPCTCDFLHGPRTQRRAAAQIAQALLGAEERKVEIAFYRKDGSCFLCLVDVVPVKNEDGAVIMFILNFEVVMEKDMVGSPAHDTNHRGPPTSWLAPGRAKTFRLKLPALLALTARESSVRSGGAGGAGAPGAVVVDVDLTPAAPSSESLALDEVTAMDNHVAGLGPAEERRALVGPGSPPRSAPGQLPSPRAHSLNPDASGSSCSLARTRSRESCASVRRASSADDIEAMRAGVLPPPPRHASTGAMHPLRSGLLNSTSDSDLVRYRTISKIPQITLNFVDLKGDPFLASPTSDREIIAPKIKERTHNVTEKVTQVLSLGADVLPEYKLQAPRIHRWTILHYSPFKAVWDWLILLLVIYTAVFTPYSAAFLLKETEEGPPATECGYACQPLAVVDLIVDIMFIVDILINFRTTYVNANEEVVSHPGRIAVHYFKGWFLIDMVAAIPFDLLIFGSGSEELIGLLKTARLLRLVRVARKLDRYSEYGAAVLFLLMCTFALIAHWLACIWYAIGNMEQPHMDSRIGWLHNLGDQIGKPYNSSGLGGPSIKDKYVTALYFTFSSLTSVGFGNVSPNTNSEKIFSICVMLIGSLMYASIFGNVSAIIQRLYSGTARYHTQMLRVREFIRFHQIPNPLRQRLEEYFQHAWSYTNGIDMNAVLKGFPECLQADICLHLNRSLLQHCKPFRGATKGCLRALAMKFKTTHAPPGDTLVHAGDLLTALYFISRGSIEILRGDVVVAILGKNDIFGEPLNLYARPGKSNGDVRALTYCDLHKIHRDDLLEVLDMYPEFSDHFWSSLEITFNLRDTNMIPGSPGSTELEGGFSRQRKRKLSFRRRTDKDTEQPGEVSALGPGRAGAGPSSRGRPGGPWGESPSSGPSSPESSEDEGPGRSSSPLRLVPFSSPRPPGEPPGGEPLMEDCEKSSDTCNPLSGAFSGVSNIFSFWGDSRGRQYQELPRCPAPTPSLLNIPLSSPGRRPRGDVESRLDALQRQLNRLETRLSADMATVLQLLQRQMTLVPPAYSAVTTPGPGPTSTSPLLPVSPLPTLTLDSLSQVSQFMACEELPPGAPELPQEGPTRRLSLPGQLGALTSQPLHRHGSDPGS

Sequence of ATP-dependent Clp protease proteolytic subunit, mitochondrial (Q16740 whole entry): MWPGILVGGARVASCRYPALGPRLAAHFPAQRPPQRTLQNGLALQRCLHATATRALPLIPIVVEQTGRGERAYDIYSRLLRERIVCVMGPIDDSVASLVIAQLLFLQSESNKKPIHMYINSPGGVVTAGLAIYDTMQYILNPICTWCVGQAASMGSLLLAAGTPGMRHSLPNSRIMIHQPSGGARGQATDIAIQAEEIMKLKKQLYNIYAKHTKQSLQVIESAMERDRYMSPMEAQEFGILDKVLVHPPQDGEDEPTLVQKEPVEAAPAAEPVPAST

With `O=C1C2=C(CCN(Cc3ccccc3)C2)N2CCN=C2N1Cc1ccc(C(F)(F)F)cc1` the CLint scaled [1] was 876 mL/min/kg, the bioavailability at 24 h (in vivo [2]) was 43.7% and the AUC(0-t) at 24 h (in vivo [3]) was 3350 ng·h/mL. The half-life [4] was 10.2 h, the CLint scaled [5] was 338 mL/min/kg and the half-life at 24 h [6] was 2.01 h. For the same molecule, the CLhep predicted [7] was 51.9 mL/min/kg, the CLhep predicted [8] was 19.7 mL/min/kg and the IC50 (SU-DHL-6) was 91.8 nM. It also gave a hepatic extraction ratio [9] of 0.941, a half-life at 24 h [10] of 3.75 h and an IC50 (Toledo) greater than 250 nM. The Vd at 24 h [11] was 2.25 L/kg, the clearance at 24 h [12] was 21.8 mL/min/kg and the IC50 (OCI-Ly3) was 148 nM. It also gave an MRT at 24 h [13] of 1.72 h, a Cmax at 24 h (in vivo [14]) of 873 ng/mL and a CLint scaled [15] of 396 mL/min/kg. It also gave an IC50 (SU-DHL-2) of 222 nM, an AUC(0-t) at 24 h [16] of 1530 ng·h/mL and an EC50 [17] of 156 nM. The half-life [18] was 7.1 h, the Tmax at 24 h (in vivo [19]) was 0.42 h and the hepatic extraction ratio [20] was 0.95. The IC50 (SUD4) was 250 nM, the CLint scaled [21] was 487 mL/min/kg and the MRT at 24 h [22] was 4.65 h. For the same molecule, the IC50 [23] was greater than 40000 nM.

From ChEMBL document CHEMBL6153125, “Harnessing the Magic Methyl Effect: Discovery of CLPP-2068 as a Novel HsClpP Activator for the Treatment of Diffuse Large B-Cell Lymphoma” (J Med Chem, 2025)
